# Measured values as given in patent US20060241178A1, “Compositions and methods for treating lung cancer” (priority 2002, published 2006).
# Entries after “also recorded” stand apart in the source; their conditions may differ. Read-outs that look alike come from different tables or passages of the source. Marks after values point to notes of the source that are not given here.
# Legend:
# [1] = system: AP-1 binding activity in A549 cells; assay: EMSA of AP-1 binding activity in A549 cells; format: cell-based, human; design: AP-1 binding activity: dose or concentration left out as unconfirmed; settings: for 24 h
# Description: Cell Lines: The human lung adenocarcinoma cell line A549 was obtained from the American Type Culture Collection (ATCC) (Bethesda, Md.). […] Cells were grown at 37° C. with 5% CO2.
# Reagents: The PEITC was obtained from Aldrich (Milwaukee, Wis.) and its N-acetylcysteine conjugate was synthesized in house by the Organic Synthesis Facility using the method described previously (Kassahun et al., Chem Res Toxicol 1997, 10(11):1228-33). Unless specified otherwise, the A549 cells were treated with 10 or 25 μM of PEITC-NAC. TPA (12-O-tetradecanoylphorbol-13-acetate) was purchased from Sigma (St. Louis, Mo.).
# Electrophoretic Mobility Shift Assay (EMSA): Double-stranded oligonucleotides containing the consensus-binding site for AP-1 were purchased commercially (Santa Cruz Biotech). The oligos were labeled with γ-^32P-ATP (6000 Ci/mmol, Armeshem Pharmacia Biotech. Inc Piscataway, N.J.) using polynucleotide kinase (Promega, Madison, Wis.) according to standard procedures. The labeled DNA was incubated with 5 μg of total proteins (as specified in the Results section) for 10 min at room temperature, in the presence of 1 μg of poly d(I)-d(C) oligomer (Roche Molecular Biochemicals, Indianapolis, Ind.) and DNA-binding buffer as described previously (Yang et al., Cell Growth Differ 1993, 4(7):595-602). The complexes were then separated on a 7.5% polyacrylamide gel and autoradiographed.
# Proteins Isolation: Cells were incubated in a 37° C. with 5% CO2, followed by mock or treatments specified in the results section. Total proteins were then isolated using RIPA buffer. The protease inhibitors aprotinin (1 μg/ml), leupeptin (1 μg/ml), pepstatin (1 μg/ml), phenylmethylsulfonyl fluoride (0.1 mM) and the phosphatase inhibitor Na3VO4 (1 mM), NaF (1 mM) were added to all buffers. The protein concentrations were determined using the Coomassie Plus Protein Assay Reagent (Pierce, Rockford, Ill.), and aliquots of the proteins were stored at −80° C.
# A549 cells = assay: Apoptosis in A549 cells treated with TPA, PEITC-NAC or TPA plus PEITC-NAC (photography, DAPI staining); format: cell-based, human; settings: 100 nM TPA
# Source text: Assay for single cell DNA strand breaks: A549 cells treated with or without TPA, PEITC-NAC or TPA plus PEITC-NAC were collected at the times specified in the text, cytocentrifuged and stained with 4′-6′diamidino-2-phenylindole (DAPI). The photographs were taken using an Olympus AX 70 microscope (Melville, N.Y.) with fluorescence and SPOT RT Slider digital image system (Diagnostic Instruments Inc., Sterling Heights, Mich.). Arrows indicated the typical apoptotic features of DNA strand breakage and nuclear fragmentation.
# TPA (100 nM) was added to A549 cells 12 h prior to addition of PEITC-NAC, which was added 24 h before photography of cells, protein isolation, or DAPI staining. […] These cells were treated identically, but were stained with the DNA fluorochrome DAPI.
# [2] = system: NNK/B(a)P-induced lung adenomas and adenocarcinomas; settings: for Adenocarcinoma Incidence (%) / Adenoma Incidence (%) / Adenoma Multiplicity mean ± SD / Adenocarcinoma Multiplicity mean ± SD: preliminary; for mean numbers of lung adenomas compared with carcinogen control mice: at termination
# Description: The test compounds were given in the diet on week 21 after beginning of a weekly dose of a mixture of NNK/B(a)P: 3 μmol each (621 μg NNK and 756 μg B(a)P) in 0.1 ml cottonseed oil for eight weeks (a total of 8 doses) (groups 1 to 10); only vehicle (cottonseed oil) for groups 11 to 15. Animals were then given experimental diet for 20 weeks until week 40. Four mice in groups 1, 2, 4, 6, 8, and 10 (see Table 1) were sacrificed on weeks 20, 38, and 40. The bioassay was terminated on week 52. If sufficient numbers of tumors were developed in mice killed on week 40, the bioassay was terminated at week 40. Tumors (adenomas and carcinomas) were quantified by multiplicity and incidence. At sacrifice, livers and lungs were harvested and the tissues rinsed in autoclaved PBS, stored in labeled foil, and snap frozen in liquid nitrogen. These tissues both tumorous and non-tumorous were processed by histology for biomarker studies (TUNEL, PCNA,p53, […] kinases, etc.). Lungs were examined by histology at termination (52 week or 40 week) for adenomas and carcinomas).
# In this study, the potential protective effects of ITCs and ITC-NACs against progression of lung adenomas to malignant tumors were investigated. Lung tumors were induced in A/J mice with 3 μmol B(a)P plus 3 μmol NNK (gavage once/wk, 8 wks); mice were maintained on AIN-76A semi-purified diets. […] Diets containing PEITC (phenethyl ITC) or SFN (sulforaphane), each at 3 mmol/kg and 1.5 mmol/kg diet; PEITC-NAC or SFN-NAC at 8 mmol/kg and 4 mmol/kg diet; and NAC at 8 mmol/kg diet were then provided to groups of 28 mice (high dose) or 20 mice (low dose) during weeks 20 to 40 after initiation. Four mice in each high dose treatment group were killed during weeks 28 and 40 to monitor tumor incidence and progression; lung tissues were used for molecular studies. Remaining mice were killed at 40 weeks for histopathological examination. […] To assess molecular events occurring during the treatments, lung RNA of mice treated with B(a)P+NNK/control diet and B(a)P+NNK/PEITC-NAC high dose diet was examined using a Mouse Cancer Pathway Finder Gene Array.
# [3] = system: p53 (−/−) mouse embryo fibroblasts; settings: cited from earlier work
# p53 [4] = settings: mouse epidermal cell line, with accompanying apoptosis; cited from earlier work
# [5] = system: aberrant crypt foci in the colon; settings: oral, after or independent of timing of azoxymethane; cited from earlier work
# [6] = system: B(a)P-induced lung adenoma; assay: Tumor bioassay: B(a)P-induced lung tumorigenesis, ITC-NAC conjugates in diet during post-initiation phase
# Description: The ITC conjugates were incorporated (15 μmol/g diet) into AIN-76A diets (5% corn oil) by mixing with dextrose prior to diet preparation. The conjugates, 9.36 g BITC-NAC (15 mmol) or 9.79 g PEITC-NAC (15 mmol), were dissolved in 50 ml ethyl acetate, and then mixed with 200 g dextrose to ensure even coating of dextrose particles. After mixing with dextrose, the solvent was removed using a rotary evaporator and further dried using a vacuum pump (2-3 h). Diets were prepared in 1-2 kg batches, and were stored at 4° C. in a container purged with nitrogen. […] Stability was determined by extraction of 0.5 g portions of the diet with 2.5 ml methanol (2×). The methanol extracts were combined and a 1 ml aliquot was filtered using a 0.47 μm syringe filter. A 10 μl sample was then analyzed on HPLC (Jiao, et al., Chem. Res. Toxicol., 9: 932-938, 1996).
# Tumor Bioassay: Female strain A mice (Jackson Laboratories, Bar Harbor, Me.) of four weeks of age were housed under quarantine in polycarbonate cages (5 mice/cage) and provided modified AIN 76A diet (5% corn oil) and acidified drinking water ad libitum. The mice were maintained on a 12 h light: 12 h dark regimen at 22±5° C. and 50±20% relative humidity. After one week, the mice were weighed, and distributed into four groups containing 30 to 35 mice on the basis of body weight. At seven weeks of age, the mice in groups 1-3 were gavaged with a single dose of 20 μmol B(a)P in 0.2 ml cottonseed oil; group 4 received the vehicle only. Two days after dosing with the carcinogen, diets containing BITC-NAC (15 μmol/g, Group 2) and PEITC-NAC (15 μmol/g, Group 3) were provided. Groups 1 (B[a]P control) and 4 (vehicle only) remained on the modified AIN-76A diet with 5% corn oil. Tap water was provided ad libitum during the course of the bioassay. Mice were observed daily; diets were replenished on the fourth day of the week, and completely replaced on the seventh day. Mice were weighed weekly for four weeks, then monthly and at termination. At 84 days after B(a)P dosing, four mice per group were killed (CO2, cervical dislocation) to harvest lung tissues for molecular and immunohistochemical studies and to quantify lung adenomas, if present. At 140 days after B(a)P, the remaining mice in each group were killed. The number of lung tumors was recorded; lobes of lungs were placed in 10% phosphate buffered formalin for histological and immunohistochemical analysis. The remaining lung lobes were snap frozen in liquid nitrogen.
# Mean tumor multiplicity and body weights at each time point were compared between groups using Student's T test.
# [7] = system: alveolar epithelium cells of lung; assay: In situ end-labeling (ISEL/TUNEL) of apoptosis in lung sections; format: in vivo, A/J mice
# [8] = Stability of conjugates in AIN-76A diet (methanol extraction, HPLC); format: physicochemical; settings: stored at 4° C. under nitrogen
# Description: The ITC conjugates were incorporated (15 μmol/g diet) into AIN-76A diets (5% corn oil) by mixing with dextrose prior to diet preparation. […] After mixing with dextrose, the solvent was removed using a rotary evaporator and further dried using a vacuum pump (2-3 h). Diets were prepared in 1-2 kg batches, and were stored at 4° C. in a container purged with nitrogen. […] Stability was determined by extraction of 0.5 g portions of the diet with 2.5 ml methanol (2×). The methanol extracts were combined and a 1 ml aliquot was filtered using a 0.47 μm syringe filter.
# JNK 1 and 2 = assay: Western blot of lung total proteins: JNK phosphorylation; format: in vivo, A/J mice; settings: lung tissue 21 days after B(a)P
# p53 [9] = assay: Western blot of lung proteins: p53 expression and phosphorylation; format: in vivo, A/J mice; settings: lungs at termination of the bioassay
# [10] = high dose (3 or 8 mmol/kg diet)
# [11] = high dose (PEITC, SFN 3 mmol/kg diet; PEITC-NAC, SFN-NAC, NAC 8 mmol/kg diet)
# [12] = low dose (1.5 or 4 mmol/kg diet)
# [13] = low dose (PEITC, SFN 1.5 mmol/kg diet; PEITC-NAC, SFN-NAC 4 mmol/kg diet)
SMILES,"Adenocarcinoma Incidence (%) [2, 10]","Adenoma Incidence (%) [2, 10]","Adenoma Multiplicity mean ± SD [2, 11]","Adenocarcinoma Incidence (%) [2, 12]","Adenocarcinoma Multiplicity mean ± SD [2, 12]","Adenoma Incidence (%) [2, 12]","Adenoma Multiplicity mean ± SD [2, 13]",aberrant crypt foci formation [5],mean numbers of lung adenomas compared with carcinogen control mice [2],"Adenocarcinoma Multiplicity mean ± SD [2, 10]",other results
"CCCCCCCCCCCCCC(=O)O[C@@H]1[C@@H](C)[C@@]2(O)[C@@H](C=C(CO)C[C@]3(O)C(=O)C(C)=C[C@@H]23)[C@@H]2C(C)(C)[C@]12OC(C)=O [TPA, 12-O-tetradecanoylphorbol-13-acetate]",,,,,,,,,,,AP-1 binding activity [1]: specifically induced; cell growth / apoptosis with TPA alone (A549 cells): appear to be growing well; also recorded: did not cause apoptosis in A549 cells
"S=C=NCCc1ccccc1 [PEITC, phenethyl isothiocyanate]",6/32 (19%)*,31/32 (96.90%),8.81 ± 3.96,7/20 (35%),1.15 ± 1.85,19/20 (95%),7.25 ± 4.43,inhibited foci formation,,,"Overall % Survival ([2]; high dose, adjusted for scheduled sacrifices, control 29.8%): 21.10%; induction of apoptosis [3]: did not induce apoptosis; p53 transactivation (p53 [4]): induces p53 transactivation in a dose- and time-dependent manner"
"CC(=O)N[C@@H](CS)C(=O)O [NAC, N-acetyl-L-cysteine]",4/8 (50%),8/8 (100%),,,,,,,decreases were significant,1.10 ± 1.51,
"C[S+]([O-])CCCCN=C=S (centres unmarked) [SFN, sulforaphane]",10/32 (31.3%),30/32 (93.8%),8.84 ± 5.72,4/20 (20%),0.30 ± 0.64,20/20 (100%),9.25 ± 4.15,inhibited foci formation,,0.84 ± 1.48,"malignant tumor multiplicity ([2]; low dose groups, initiated control group 2.1): 0.9 tumors/mouse"
"CC(=O)NC(CSC(=S)NCCCC[S+](C)[O-])C(=O)O (centres unmarked) [SFN-NAC, sulforaphane-NAC]",5/31 (16.13%),31/31 (100%),9.06 ± 5.35,2/19 (10.53%),0.32 ± 0.92,18/19 (94.74%),8.53 ± 4.32,,decreases were significant,0.42 ± 1.01,
"CC(=O)N[C@@H](CSC(=S)NCc1ccccc1)C(=O)O [BITC-NAC, benzyl isothiocyanate-NAC]",,,,,,,,,,,"tumor multiplicity ([6]; 15 μmol/g diet after B(a)P, at termination, B(a)P control 6.1±3.1): 3.7±2.9 tumors/mouse; Tumor Incidence (%), lung adenoma ([6]; 15 μmol/g diet from 2 days after 20 μmol B(a)P, 140 days): 94%; Tumor multiplicity (no. of tumors/mice), lung adenoma ([6]; 15 μmol/g diet from 2 days after 20 μmol B(a)P, 140 days, mean ± SD): 3.72 ± 2.90^b no. of tumors/mice; average body weight at termination ([6]; 15 μmol/g diet, controls 25.8 g and 25.7 g): 22.9 g; tumor reduction ([6]; versus B(a)P control diet group, at termination): 39%; increase in apoptosis, non-tumorous lung tissue ([7]; after 140 days): 2.4 fold; apoptotic index, fold elevation ([7]; lung tissue at 84 days, before tumors appeared): approximately 2 fold; stability in diet [8]: stable for at least one month; JNK 1 (p46) phosphorylation level (JNK 1 and 2): increase; JNK 2 (p54) phosphorylation (JNK 1 and 2): only slightly induced; phosphorylation of p53 at Ser15 (p53 [9]): moderate increase"
